{"source": "paper PMC5041162", "about": "“Chemistry and Molecular Dynamics Simulations of Heme b-HemQ and Coproheme-HemQ” (Biochemistry, 2016)", "key": {"SaHemQ": {"test_system": "SaHemQ", "format": "binding, Staphylococcus aureus", "experimental": "Differential scanning calorimetry (DSC) measurements were performed using a VP-capillary DSC microcalorimeter from Microcal with a cell volume of 137 μL. The measurements were controlled by the VP-viewer program, and the instrument was equipped with an autosampler for 96-well plates. Samples were analyzed using a programmed heating scan rate of 60 °C h^–1 over a temperature range from 20 to 100 °C, and the cell pressure was approximately 60 psi (4.136 bar). DSC thermograms were corrected for buffer baseline and protein concentration. Apo-, heme b-, or coproheme-LmHemQ and SaHemQ (5 μM each) in 50 mM phosphate buffer (pH 7.0) were used for each measurement. For data analysis and conversion, the Microcal origin software was used. Heat capacity (Cp) was expressed in kilocalories per mole per kelvin. Data points were fitted to non-two-state equilibrium unfolding models by the Lavenberg–Marquardt (LM) nonlinear least-squares method."}, "[1]": {"test_system": "apo-SaHemQ and apo-LmHemQ", "format": "binding, S. aureus and L. monocytogenes", "protocol": "(§1) Time-resolved binding of coproheme to apo-HemQ was monitored using a stopped-flow apparatus equipped with a diode array detector (model SX-18MV, Applied Photophysics), in the conventional mode. […] The fastest mixing time was 1 ms. […]. Experiments were conducted in 50 mM phosphate buffer (pH 7.0). Reactions were simulated, and rates were estimated using Pro-Kineticists software (Applied Photophysics). The apparent second-order rate constants, kon, were obtained from the slope of a plot of kobs versus coproheme concentration."}, "[2]": {"biological_target": "T1, apo-LmHemQ (HemQ from Listeria monocytogenes) (Listeria monocytogenes serovar 1/2a, UniProt Q8Y5F1)", "T1 construct": "made in house; host or cells: Escherichia coli", "T1 sequence (Q8Y5F1 whole entry)": "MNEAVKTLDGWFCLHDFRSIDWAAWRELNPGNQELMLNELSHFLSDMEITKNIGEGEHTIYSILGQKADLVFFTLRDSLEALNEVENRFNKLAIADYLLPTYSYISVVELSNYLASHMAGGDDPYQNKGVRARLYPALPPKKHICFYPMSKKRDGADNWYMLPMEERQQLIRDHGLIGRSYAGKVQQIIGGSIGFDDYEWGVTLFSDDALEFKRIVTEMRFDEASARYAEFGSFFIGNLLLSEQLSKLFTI", "format": "binding", "conditions": "pH 7", "protocol": "as §1"}, "[3]": {"biological_target": "T2, apo-SaHemQ (HemQ from Staphylococcus aureus) (Staphylococcus aureus, UniProt A6QEP0)", "T2 construct": "poly-His (C); made in house; host or cells: Escherichia coli BL21(DE3)pLysS", "T2 sequence (A6QEP0 whole entry)": "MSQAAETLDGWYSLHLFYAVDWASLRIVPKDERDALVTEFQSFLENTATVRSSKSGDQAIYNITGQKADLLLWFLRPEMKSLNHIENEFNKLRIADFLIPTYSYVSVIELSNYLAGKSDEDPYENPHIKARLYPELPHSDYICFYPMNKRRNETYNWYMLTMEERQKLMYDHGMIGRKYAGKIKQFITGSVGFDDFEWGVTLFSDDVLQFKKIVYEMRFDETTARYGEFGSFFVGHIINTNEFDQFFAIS", "format": "binding", "conditions": "pH 7", "protocol": "as §1"}, "apo-myoglobin": {"biological_target": "apo-myoglobin", "conditions": "cited from earlier work"}}, "data": [{"smiles": "CC1=C(CCC(=O)O)c2cc3[n-]c(cc4nc(cc5[n-]c(cc1n2)c(CCC(=O)O)c5C)C(C)=C4CCC(=O)O)c(CCC(=O)O)c3C.[Fe]", "note": "[coproheme, iron coproporphyrin III]", "values": [{"measurement": "increase of Tm when coproheme binds", "setting": "SaHemQ", "value": 14, "unit": "°C"}, {"measurement": "rate of coproheme binding, fast phase", "setting": "[1]", "value": "1.5–2 × 10^8 M^–1 s^–1"}, {"measurement": "kon, binding of coproheme to apo-HemQ, first (fast) phase", "setting": "[2]", "value": "~1.5 × 10^8 M^–1 s^–1"}, {"measurement": "kon, binding of coproheme to apo-HemQ, second (slow) phase", "setting": "[2]", "value": "2.2 × 10^6 M^–1 s^–1"}, {"measurement": "kon, binding of coproheme to apo-HemQ, first (fast) phase", "setting": "[3]", "value": "~2.0 × 10^8 M^–1 s^–1"}, {"measurement": "kon, binding of coproheme to apo-HemQ, second (slow) phase", "setting": "[3]", "value": "3.7 × 10^6 M^–1 s^–1"}]}, {"smiles": "C=CC1=C(C)c2cc3[n-]c(cc4nc(cc5[n-]c(cc1n2)c(C)c5CCC(=O)O)C(CCC(=O)O)=C4C)c(C)c3C=C.[Fe+3]", "note": "[hemin]", "values": [{"measurement": "KD of the prosthetic group to apo-myoglobin", "setting": "apo-myoglobin", "value": "low nanomolar range"}]}]}
